Measurements as given in patent publication US20140343049A1, “DIHYDROFURAN DERIVATIVES AS INSECTICIDAL COMPOUNDS” (SYNGENTA PARTICIPATIONS AG, priority 2011, published 2014).

Assays:
Assay type in all cases: in vivo
[1] = system: Heliothis virescens (tobacco budworm); assay: Heliothis virescens egg test on artificial diet; conditions: 96 h, 200 ppm (concentration in well 18 ppm), eggs 0-24 h old, 4 days, egg mortality, larval mortality, growth regulation
Experimental: Eggs (0-24 h old) were placed in 24-well microtiter plate on artificial diet and treated with test solutions at an application rate of 200 ppm (concentration in well 18 ppm) by pipetting. After an incubation period of 4 days, samples were checked for egg mortality, larval mortality, and growth regulation.

[2] = system: Plutella xylostella (diamond back moth); assay: Plutella xylostella L2 larvae test on artificial diet; conditions: 144 h, 200 ppm (concentration in well 18 ppm), 6 days, larval mortality and growth regulation
Experimental: (§1) 24-well microtiter plate (MTP) with artificial diet was treated with test solutions at an application rate of 200 ppm (concentration in well 18 ppm) by pipetting. After drying, the MTPs were infested with L2 larvae (7-12 per well). After an incubation period of 6 days, samples were checked for larval mortality and growth regulation.

[3] = system: Spodoptera littoralis (Egyptian cotton leafworm); assay: Spodoptera littoralis cotton leaf disc spray test; conditions: foliar, 72 h, cotton leaf discs sprayed at 200 ppm, 5 L1 larvae, mortality, feeding behavior, growth regulation 3 days after treatment
From the text: Cotton leaf discs were placed on agar in a 24-well microtiter plate and sprayed with test solutions at an application rate of 200 ppm. After drying, the leaf discs were infested with 5 L1 larvae. The samples were checked for mortality, feeding behavior, and growth regulation 3 days after treatment (DAT).

[4] = system: Diabrotica balteata (corn root worm); assay: Diabrotica balteata L2 larvae test on artificial diet; conditions: 120 h, 200 ppm (concentration in well 18 ppm), 5 days, larval mortality and growth regulation
Experimental: as §1, with “A 24-well” for “24-well”, “(6-10” for “(7-12”, “5” for “6”
as §1, with “A 24-well” for “24-well”, “12.5” for “200”, “MTP's” for “MTPs”, “(6-10” for “(7-12”, “5” for “6”

| SMILES | pest or weed control at 200 ppm [1] [%] | pest or weed control at 200 ppm [2] [%] | pest or weed control at 200 ppm [3] [%] | pest or weed control at 200 ppm [4] [%] |
| --- | --- | --- | --- | --- |
| CCCCNC(=O)c1ccc(C2=CC(c3cc(Cl)cc(Cl)c3)(C(F)(F)F)OC2)cc1C (centres unmarked) [Compound A5] | ≥ 80 | ≥ 80 | ≥ 80 | ≥ 80 |
| COCC(C)NC(=O)c1ccc(C2=CC(c3cc(Cl)cc(Cl)c3)(C(F)(F)F)OC2)cc1C (centres unmarked) [Compound A6] | ≥ 80 | ≥ 80 | ≥ 80 | ≥ 80 |
| Cc1cc(C2=CC(c3cc(Cl)cc(Cl)c3)(C(F)(F)F)OC2)ccc1C(=O)NCC1CCCO1 (centres unmarked) [Compound A7] | ≥ 80 | ≥ 80 | ≥ 80 | ≥ 80 |
| Cc1cc(C2=CC(c3cc(Cl)cc(Cl)c3)(C(F)(F)F)OC2)ccc1C(=O)NCc1ccccc1 (centres unmarked) [Compound A8] |  |  |  | ≥ 80 |
| Cc1cc(C2=CC(c3cc(Cl)cc(Cl)c3)(C(F)(F)F)OC2)ccc1C(=O)NC1CCSC1=O (centres unmarked) [Compound A21] | ≥ 80 | ≥ 80 | ≥ 80 | ≥ 80 |
| Cc1cc(C2=CC(c3cc(Cl)cc(Cl)c3)(C(F)(F)F)OC2)ccc1C(=O)NC1CCCCC1C (centres unmarked) [Compound A32] |  | ≥ 80 |  | ≥ 80 |
| Cc1cc(C2=CC(c3cc(Cl)cc(Cl)c3)(C(F)(F)F)OC2)ccc1C(=O)NCCc1ccccc1 (centres unmarked) [Compound A39] | ≥ 80 | ≥ 80 |  | ≥ 80 |
| Cc1cc(C2=CC(c3cc(Cl)cc(Cl)c3)(C(F)(F)F)OC2)ccc1C(=O)NCCc1cccs1 (centres unmarked) [Compound A41] |  | ≥ 80 |  | ≥ 80 |
| Cc1cc(C2=CC(c3cc(Cl)cc(Cl)c3)(C(F)(F)F)OC2)ccc1C(=O)NCCOc1ccccc1 (centres unmarked) [Compound A42] | ≥ 80 |  | ≥ 80 | ≥ 80 |
| Cc1cc(C2=CC(c3cc(Cl)cc(Cl)c3)(C(F)(F)F)OC2)ccc1C(=O)NCc1ccccc1C(F)(F)F (centres unmarked) [Compound A48] |  |  |  | ≥ 80 |
| Cc1cc(C2=CC(c3cc(Cl)cc(Cl)c3)(C(F)(F)F)OC2)ccc1C(=O)NCc1ccccc1N1CCCCC1 (centres unmarked) [Compound A50] |  |  |  | ≥ 80 |
| Cc1cc(C2=CC(c3cc(Cl)cc(Cl)c3)(C(F)(F)F)OC2)ccc1C(=O)NC1CCN(Cc2ccccc2)C1 (centres unmarked) [Compound A53] |  |  | ≥ 80 | ≥ 80 |
| Cc1cc(C2=CC(c3cc(Cl)cc(Cl)c3)(C(F)(F)F)OC2)ccc1C(=O)NCCN1CCN(Cc2ccccc2)CC1 (centres unmarked) [Compound A54] | ≥ 80 |  |  | ≥ 80 |
| Cc1cc(C2=CC(c3cc(Cl)cc(Cl)c3)(C(F)(F)F)OC2)ccc1C(=O)NCc1ccco1 (centres unmarked) [Compound A55] | ≥ 80 | ≥ 80 | ≥ 80 | ≥ 80 |
| Cc1cc(C2=CC(c3cc(Cl)cc(Cl)c3)(C(F)(F)F)OC2)ccc1C(=O)Nc1ccc2[nH]ncc2c1 (centres unmarked) [Compound A60] | ≥ 80 | ≥ 80 | ≥ 80 | ≥ 80 |
| Cc1cc(C2=CC(c3cc(Cl)cc(Cl)c3)(C(F)(F)F)OC2)ccc1C(=O)Nc1ccc(-n2cccc2)cc1 (centres unmarked) [Compound A61] |  |  |  | ≥ 80 |
| Cc1cc(C2=CC(c3cc(Cl)cc(Cl)c3)(C(F)(F)F)OC2)ccc1C(=O)Nc1ccc2c(C)cc(=O)oc2c1 (centres unmarked) [Compound A65] |  |  |  | ≥ 80 |
| Cc1cc(C2=CC(c3cc(Cl)cc(Cl)c3)(C(F)(F)F)OC2)ccc1C(=O)Nc1ccc(S(=O)(=O)N(C)C)cc1 (centres unmarked) [Compound A66] | ≥ 80 |  |  | ≥ 80 |
| Cc1cc(NC(=O)c2ccc(C3=CC(c4cc(Cl)cc(Cl)c4)(C(F)(F)F)OC3)cc2C)n(C)n1 (centres unmarked) [Compound A67] | ≥ 80 | ≥ 80 | ≥ 80 |  |
| Cc1cc(O)nc(NC(=O)c2ccc(C3=CC(c4cc(Cl)cc(Cl)c4)(C(F)(F)F)OC3)cc2C)n1 (centres unmarked) [Compound A69] | ≥ 80 | ≥ 80 |  | ≥ 80 |
| Cc1cc(C2=CC(c3cc(Cl)cc(Cl)c3)(C(F)(F)F)OC2)ccc1C(=O)Nc1ncnc2[nH]cnc12 (centres unmarked) [Compound A72] |  |  | ≥ 80 |  |
| Cc1nnc(NC(=O)c2ccc(C3=CC(c4cc(Cl)cc(Cl)c4)(C(F)(F)F)OC3)cc2C)s1 (centres unmarked) [Compound A75] |  |  |  | ≥ 80 |
| O=C(NCC(F)(F)F)c1ccc(C2=CC(c3cc(Cl)cc(Cl)c3)(C(F)(F)F)OC2)nc1 (centres unmarked) [Compound B1] |  | ≥ 80 |  |  |

| SMILES | pest or weed control at 200 ppm [1] [%] | pest or weed control at 200 ppm [2] [%] | pest or weed control at 200 ppm [3] [%] | pest or weed control at 200 ppm [4] [%] |
| --- | --- | --- | --- | --- |
| CCNC(=O)c1ccc(C2=CC(c3cc(Cl)cc(Cl)c3)(C(F)(F)F)OC2)nc1 (centres unmarked) [Compound B2] |  |  |  | ≥ 80 |
| O=C(CNC(=O)c1ccc(C2=CC(c3cc(Cl)cc(Cl)c3)(C(F)(F)F)OC2)nc1)NCC(F)(F)F (centres unmarked) [Compound B5] | ≥ 80 |  |  |  |
| O=C(NCCC(F)(F)F)c1ccc(C2=CC(c3cc(Cl)cc(Cl)c3)(C(F)(F)F)OC2)nc1 (centres unmarked) [Compound B6] |  |  |  | ≥ 80 |
| CCC(C)NC(=O)c1ccc(C2=CC(c3cc(Cl)cc(Cl)c3)(C(F)(F)F)OC2)nc1 (centres unmarked) [Compound B7] |  | ≥ 80 |  |  |
| O=C(NCC1CCCO1)c1ccc(C2=CC(c3cc(Cl)cc(Cl)c3)(C(F)(F)F)OC2)nc1 (centres unmarked) [Compound B8] |  | ≥ 80 |  |  |
| COc1ccc(CNC(=O)c2ccc(C3=CC(c4cc(Cl)cc(Cl)c4)(C(F)(F)F)OC3)nc2)cc1 (centres unmarked) [Compound B12] |  |  |  | ≥ 80 |
| O=C(NCc1ccc(Cl)nc1)c1ccc(C2=CC(c3cc(Cl)cc(Cl)c3)(C(F)(F)F)OC2)nc1 (centres unmarked) [Compound B14] | ≥ 80 |  |  |  |
| CC1(NC(=O)c2ccc(C3=CC(c4cc(Cl)cc(Cl)c4)(C(F)(F)F)OC3)nc2)CSC1 (centres unmarked) [Compound B19] |  |  |  | ≥ 80 |
| O=C(NC1CCC1)c1ccc(C2=CC(c3cc(Cl)cc(Cl)c3)(C(F)(F)F)OC2)nc1 (centres unmarked) [Compound B23] |  | ≥ 80 |  |  |
| Cc1nc(C2=CC(c3cc(Cl)cc(Cl)c3)(C(F)(F)F)OC2)ccc1C(=O)NCCC(F)(F)F (centres unmarked) [Compound C6] |  | ≥ 80 | ≥ 80 | ≥ 80 |
| Cc1nc(C2=CC(c3cc(Cl)cc(Cl)c3)(C(F)(F)F)OC2)ccc1C(=O)NCC1CCCO1 (centres unmarked) [Compound C8] | ≥ 80 |  | ≥ 80 | ≥ 80 |
| Cc1nc(C2=CC(c3cc(Cl)cc(Cl)c3)(C(F)(F)F)OC2)ccc1C(=O)Nc1cccc(F)c1 (centres unmarked) [Compound C15] | ≥ 80 | ≥ 80 | ≥ 80 |  |
| Cc1cc(NC(=O)c2ccc(C3=CC(c4cc(Cl)cc(Cl)c4)(C(F)(F)F)OC3)nc2C)n(C)n1 (centres unmarked) [Compound C16] | ≥ 80 | ≥ 80 |  |  |
| CSCC(C)(C)NC(=O)c1ccc(C2=CC(c3cc(Cl)cc(Cl)c3)(C(F)(F)F)OC2)nc1C (centres unmarked) [Compound C18] |  |  | ≥ 80 | ≥ 80 |
| CCCCNC(=O)c1ccc(C2=CC(c3cc(Cl)cc(Cl)c3)(C(F)(F)F)OC2=O)cc1C (centres unmarked) [Compound E3] |  | ≥ 80 |  |  |
| Cc1cc(C2=CC(c3cc(Cl)cc(Cl)c3)(C(F)(F)F)OC2=O)ccc1C(=O)NCCC(F)(F)F (centres unmarked) [Compound E6] |  | ≥ 80 | ≥ 80 |  |
| Cc1cc(C2=CC(c3cc(Cl)cc(Cl)c3)(C(F)(F)F)OC2=O)ccc1C(=O)NCc1ccccc1 (centres unmarked) [Compound E8] |  |  | ≥ 80 |  |
| Cc1cc(C2=CC(c3cc(Cl)cc(Cl)c3)(C(F)(F)F)OC2=O)ccc1C(=O)NCc1ccccc1F (centres unmarked) [Compound E9] |  | ≥ 80 |  |  |
| COc1ccc(CNC(=O)c2ccc(C3=CC(c4cc(Cl)cc(Cl)c4)(C(F)(F)F)OC3=O)cc2C)cc1 (centres unmarked) [Compound E11] |  | ≥ 80 |  |  |
| Cc1cc(C2=CC(c3cc(Cl)cc(Cl)c3)(C(F)(F)F)OC2=O)ccc1C(=O)NCc1ccccn1 (centres unmarked) [Compound E13] |  | ≥ 80 | ≥ 80 | ≥ 80 |
| Cc1csc(NC(=O)c2ccc(C3=CC(c4cc(Cl)cc(Cl)c4)(C(F)(F)F)OC3=O)cc2C)n1 (centres unmarked) [Compound E15] |  |  | ≥ 80 | ≥ 80 |
| Cc1cc(C2=CC(c3cc(Cl)cc(Cl)c3)(C(F)(F)F)OC2=O)ccc1C(=O)NC1CSC1 (centres unmarked) [Compound E17] |  |  |  | ≥ 80 |
| Cc1cc(C2=CC(c3cc(Cl)cc(Cl)c3)(C(F)(F)F)OC2=O)ccc1C(=O)NC1C[S+]([O-])C1 (centres unmarked) [Compound E19] |  |  | ≥ 80 |  |
